In ChEMBL document CHEMBL1201862, “PubChem BioAssay data set” (2004):
Calls of active or inactive are those of the source.

Key:
[1] = HIV-1 AD8 envelope cell-cell fusion blockers – cherry-pick, dose response (AID 652062); assay type: functional, cell-based;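 also: luciferase signal from cell-cell fusion driven by HIV-1 clade B AD8 Env; potency is for inhibitors of fusion seen as a drop in luminescence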
[2] = blockers of HIV-1 ZM109 envelope-driven cell-cell fusion – HeLa effector, CEM target cells, luciferase, cherry-pick, dose response (AID 652058); assay type: functional, cell-based;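 also: luciferase signal from HIV-1 Env mediated cell-cell fusion of effector and target cells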
[3] = blockers of HIV-1 envelope-mediated cell-cell fusion – cherry-pick, dose response (AID 652057); assay type: functional, cell-based
[4] = biological target: T1, Calpain-2 catalytic subunit (Sus scrofa, UniProt P43367); assay: m-calpain protease blockers, concentration series – biochemical, fluorogenic peptide substrate, dose response (AID 1420); assay type: functional
T1 sequence (P43367 whole entry): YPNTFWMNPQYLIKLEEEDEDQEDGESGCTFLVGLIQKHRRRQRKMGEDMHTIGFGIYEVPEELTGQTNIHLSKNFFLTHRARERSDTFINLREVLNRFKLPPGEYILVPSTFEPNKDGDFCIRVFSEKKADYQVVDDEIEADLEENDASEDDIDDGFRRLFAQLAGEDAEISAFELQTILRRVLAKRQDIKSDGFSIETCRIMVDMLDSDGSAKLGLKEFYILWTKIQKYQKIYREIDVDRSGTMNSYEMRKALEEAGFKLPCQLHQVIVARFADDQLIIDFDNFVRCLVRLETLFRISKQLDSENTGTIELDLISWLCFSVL

[5] = biological target: Fatty acid synthase (Homo sapiens, UniProt P49327); assay: inhibition of human FAS-TE enzyme activity – biochemical, kinetic fluorescence intensity, dose response (AID 624326); assay type: functional;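 also: rate of fluorescence rise from hydrolysis of a fluorogenic O-methyl fluorescein ester substrate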
Chain of Fatty acid synthase (P49327 whole entry): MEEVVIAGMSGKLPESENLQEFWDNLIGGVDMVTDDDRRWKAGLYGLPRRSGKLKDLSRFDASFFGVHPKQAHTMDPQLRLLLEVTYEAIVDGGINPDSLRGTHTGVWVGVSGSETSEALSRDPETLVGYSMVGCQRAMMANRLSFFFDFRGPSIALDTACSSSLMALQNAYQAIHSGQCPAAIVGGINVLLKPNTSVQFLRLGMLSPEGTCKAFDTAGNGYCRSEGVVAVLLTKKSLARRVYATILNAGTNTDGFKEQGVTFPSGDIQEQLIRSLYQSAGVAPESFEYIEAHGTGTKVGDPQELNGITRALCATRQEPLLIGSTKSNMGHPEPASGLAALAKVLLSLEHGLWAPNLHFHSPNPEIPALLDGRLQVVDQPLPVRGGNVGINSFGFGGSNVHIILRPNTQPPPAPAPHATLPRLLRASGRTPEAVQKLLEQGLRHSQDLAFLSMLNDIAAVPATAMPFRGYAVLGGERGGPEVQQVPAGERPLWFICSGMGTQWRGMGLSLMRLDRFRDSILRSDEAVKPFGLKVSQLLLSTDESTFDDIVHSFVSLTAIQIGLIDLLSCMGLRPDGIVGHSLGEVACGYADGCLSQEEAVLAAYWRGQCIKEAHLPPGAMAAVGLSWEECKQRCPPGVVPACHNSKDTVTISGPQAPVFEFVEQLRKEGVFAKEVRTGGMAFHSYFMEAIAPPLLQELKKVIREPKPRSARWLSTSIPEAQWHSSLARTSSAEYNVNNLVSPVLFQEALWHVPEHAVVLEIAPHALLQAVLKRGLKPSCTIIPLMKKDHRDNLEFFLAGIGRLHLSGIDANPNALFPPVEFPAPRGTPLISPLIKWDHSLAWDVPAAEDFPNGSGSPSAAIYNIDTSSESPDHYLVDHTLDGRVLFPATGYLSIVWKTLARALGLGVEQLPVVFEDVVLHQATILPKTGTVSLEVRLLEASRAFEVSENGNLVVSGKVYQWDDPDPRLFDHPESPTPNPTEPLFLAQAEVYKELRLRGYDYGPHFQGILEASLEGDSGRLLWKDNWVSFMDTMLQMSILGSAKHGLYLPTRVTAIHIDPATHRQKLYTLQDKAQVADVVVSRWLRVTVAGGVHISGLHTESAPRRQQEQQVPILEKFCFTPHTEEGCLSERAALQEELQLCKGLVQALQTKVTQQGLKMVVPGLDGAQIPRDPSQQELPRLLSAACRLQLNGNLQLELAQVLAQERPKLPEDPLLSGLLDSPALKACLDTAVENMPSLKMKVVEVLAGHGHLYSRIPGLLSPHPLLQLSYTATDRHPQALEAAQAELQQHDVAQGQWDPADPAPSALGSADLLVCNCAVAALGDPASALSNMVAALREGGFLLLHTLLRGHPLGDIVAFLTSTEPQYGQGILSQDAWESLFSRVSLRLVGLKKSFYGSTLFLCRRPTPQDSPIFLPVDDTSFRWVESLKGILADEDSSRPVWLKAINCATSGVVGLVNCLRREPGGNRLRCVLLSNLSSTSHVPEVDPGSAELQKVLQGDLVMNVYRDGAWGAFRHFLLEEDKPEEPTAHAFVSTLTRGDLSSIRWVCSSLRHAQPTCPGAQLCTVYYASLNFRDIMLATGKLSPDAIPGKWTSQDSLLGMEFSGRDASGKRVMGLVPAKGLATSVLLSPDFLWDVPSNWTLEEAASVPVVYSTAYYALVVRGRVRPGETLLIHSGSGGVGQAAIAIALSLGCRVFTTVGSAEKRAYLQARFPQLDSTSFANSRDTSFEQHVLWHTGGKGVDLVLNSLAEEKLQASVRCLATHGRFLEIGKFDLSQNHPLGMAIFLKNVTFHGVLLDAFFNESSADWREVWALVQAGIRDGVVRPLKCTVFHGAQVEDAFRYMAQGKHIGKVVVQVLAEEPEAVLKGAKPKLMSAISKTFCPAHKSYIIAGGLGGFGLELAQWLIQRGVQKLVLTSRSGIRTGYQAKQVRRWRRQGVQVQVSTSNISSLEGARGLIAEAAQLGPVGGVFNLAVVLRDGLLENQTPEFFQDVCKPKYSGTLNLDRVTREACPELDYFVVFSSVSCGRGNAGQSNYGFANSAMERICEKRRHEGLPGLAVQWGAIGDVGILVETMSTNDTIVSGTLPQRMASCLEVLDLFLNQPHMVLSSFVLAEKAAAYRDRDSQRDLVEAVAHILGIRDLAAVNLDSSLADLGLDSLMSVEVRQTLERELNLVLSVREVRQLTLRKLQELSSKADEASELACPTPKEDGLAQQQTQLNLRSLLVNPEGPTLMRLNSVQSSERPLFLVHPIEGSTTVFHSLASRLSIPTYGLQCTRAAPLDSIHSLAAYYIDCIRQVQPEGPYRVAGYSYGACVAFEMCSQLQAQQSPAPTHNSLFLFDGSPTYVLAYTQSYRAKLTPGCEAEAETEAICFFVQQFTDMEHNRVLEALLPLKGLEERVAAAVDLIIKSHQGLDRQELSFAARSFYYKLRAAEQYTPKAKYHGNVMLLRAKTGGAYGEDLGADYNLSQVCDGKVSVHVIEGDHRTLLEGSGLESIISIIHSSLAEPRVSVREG

[6] = biological target: T2, Polyadenylate-binding protein 1 (Homo sapiens, UniProt P11940); assay: MLLE binding blockers, Cy5 peptide tracer – biochemical, fluorescence polarization, Cy5-PAM2 peptide, secondary, miRNA deadenylation inhibitor project, dose response (AID 602260); assay type: functional; settings: read-out: IC50_Mean
T2 sequence (P11940 whole entry, the tested form may be a part): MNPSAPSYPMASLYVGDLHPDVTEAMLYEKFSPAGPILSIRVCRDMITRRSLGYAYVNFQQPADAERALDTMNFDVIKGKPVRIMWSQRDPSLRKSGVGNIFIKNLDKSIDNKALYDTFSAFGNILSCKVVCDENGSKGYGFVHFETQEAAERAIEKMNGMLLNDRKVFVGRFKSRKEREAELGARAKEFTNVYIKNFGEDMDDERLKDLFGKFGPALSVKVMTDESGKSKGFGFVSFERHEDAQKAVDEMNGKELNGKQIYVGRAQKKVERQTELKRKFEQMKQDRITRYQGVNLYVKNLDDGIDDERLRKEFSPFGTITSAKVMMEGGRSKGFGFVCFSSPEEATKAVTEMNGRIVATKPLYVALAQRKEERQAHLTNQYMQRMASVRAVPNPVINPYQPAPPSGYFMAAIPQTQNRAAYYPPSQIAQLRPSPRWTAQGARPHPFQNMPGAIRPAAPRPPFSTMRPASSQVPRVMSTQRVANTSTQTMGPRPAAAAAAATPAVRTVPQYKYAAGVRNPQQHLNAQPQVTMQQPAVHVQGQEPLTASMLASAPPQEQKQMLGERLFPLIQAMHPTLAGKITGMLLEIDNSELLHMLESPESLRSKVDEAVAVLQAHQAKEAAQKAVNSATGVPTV

[7] = biological target: T2, Polyadenylate-binding protein 1; assay: MLLE domain peptide-binding blockers, IC50 – biochemical, fluorescence polarization, FITC-PAM2 peptide, dose response (AID 602259); assay type: functional; settings: read-out: IC50_Mean
[8] = Luminescence Cell-Based Dose Confirmation HTS to Identify Inhibitors of Platelet Dense Granule Release. [Related pubchem assays: 1663 (Primary HTS), 1678 (Summary of Project)]; assay type: functional
[9] = biological target: Luciferin 4-monooxygenase (Photinus pyralis, UniProt P08659); assay: inhibition of purified Photinus pyralis luciferase – biochemical, luminescence, dose response (AID 1891)
Chain of Luciferin 4-monooxygenase (P08659 whole entry): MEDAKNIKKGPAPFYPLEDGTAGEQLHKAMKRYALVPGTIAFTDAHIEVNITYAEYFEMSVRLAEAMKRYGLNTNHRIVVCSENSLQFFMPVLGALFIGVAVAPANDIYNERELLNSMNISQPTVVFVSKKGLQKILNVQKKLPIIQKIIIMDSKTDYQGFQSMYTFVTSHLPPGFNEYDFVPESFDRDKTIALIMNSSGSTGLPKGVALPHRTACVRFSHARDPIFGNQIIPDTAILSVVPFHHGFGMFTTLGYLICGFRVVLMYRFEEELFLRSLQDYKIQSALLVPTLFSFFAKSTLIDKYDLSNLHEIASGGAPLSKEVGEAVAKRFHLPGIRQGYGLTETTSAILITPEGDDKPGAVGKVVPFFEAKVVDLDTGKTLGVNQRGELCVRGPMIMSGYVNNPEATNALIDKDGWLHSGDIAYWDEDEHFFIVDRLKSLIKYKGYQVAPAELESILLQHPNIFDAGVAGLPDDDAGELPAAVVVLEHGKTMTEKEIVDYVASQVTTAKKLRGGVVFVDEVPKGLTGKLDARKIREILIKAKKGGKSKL

[10] = tested on: BJ; assay: cells; assay type: functional, cell-based; settings: Homo sapiens
[11] = tested on: BJ; assay: BJ-TERT fibroblast viability loss – cell-based, RAS-independent, luminescence, dose response (AID 1933); assay type: functional; settings: Homo sapiens
[12] = tested on: BJ; assay: BJ-TERT-LT-ST fibroblast viability loss – cell-based, RAS-independent, luminescence, dose response (AID 1935); assay type: functional; settings: Homo sapiens;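 also: BJ fibroblasts immortalized with TERT plus LT and ST oncogenes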
[13] = DRD fibroblast viability loss – cell-based, non-viral oncogenic, luminescence, dose response (AID 1934); assay type: functional; settings: Homo sapiens
[14] = Luminescence Cell-Based Dose Confirmation HTS to Identify Activators of 5'UTR Stem-Loop Driven Alpha-Synuclein mRNA Translation in H4 Neuroglioblastoma Cells. [Related pubchem assays: 1829 (Project Summary), 1814 (Primary HTS)]; assay type: functional
[15] = Luminescence Cell-Based Dose Response HTS to Identify Activators of Luciferase Translation or Activity in H4 […] Cells. [Related pubchem assays: 1829 (Project Summary), 1814 (Primary HTS)]; assay type: functional
[16] = biological target: Cytochrome P450 2D6 (Homo sapiens, UniProt P10635);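 also: CYP2D6 member of a cytochrome P450 panel assay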
Chain of Cytochrome P450 2D6 (P10635 whole entry): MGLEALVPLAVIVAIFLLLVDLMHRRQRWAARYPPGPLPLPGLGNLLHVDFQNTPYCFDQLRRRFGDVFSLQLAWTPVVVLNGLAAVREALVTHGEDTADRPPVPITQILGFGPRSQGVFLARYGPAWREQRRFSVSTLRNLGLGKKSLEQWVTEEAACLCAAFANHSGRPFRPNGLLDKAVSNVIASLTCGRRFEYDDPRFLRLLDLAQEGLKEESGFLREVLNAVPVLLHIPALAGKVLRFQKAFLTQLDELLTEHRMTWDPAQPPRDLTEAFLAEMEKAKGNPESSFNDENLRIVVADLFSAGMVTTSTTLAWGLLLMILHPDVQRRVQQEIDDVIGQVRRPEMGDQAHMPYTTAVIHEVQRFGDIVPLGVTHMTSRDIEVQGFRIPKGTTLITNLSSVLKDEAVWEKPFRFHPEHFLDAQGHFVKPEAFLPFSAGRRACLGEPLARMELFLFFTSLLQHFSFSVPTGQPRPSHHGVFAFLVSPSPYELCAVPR

[17] = biological target: Cytochrome P450 2C9 (Homo sapiens, UniProt P11712)
Chain of Cytochrome P450 2C9 (P11712 whole entry): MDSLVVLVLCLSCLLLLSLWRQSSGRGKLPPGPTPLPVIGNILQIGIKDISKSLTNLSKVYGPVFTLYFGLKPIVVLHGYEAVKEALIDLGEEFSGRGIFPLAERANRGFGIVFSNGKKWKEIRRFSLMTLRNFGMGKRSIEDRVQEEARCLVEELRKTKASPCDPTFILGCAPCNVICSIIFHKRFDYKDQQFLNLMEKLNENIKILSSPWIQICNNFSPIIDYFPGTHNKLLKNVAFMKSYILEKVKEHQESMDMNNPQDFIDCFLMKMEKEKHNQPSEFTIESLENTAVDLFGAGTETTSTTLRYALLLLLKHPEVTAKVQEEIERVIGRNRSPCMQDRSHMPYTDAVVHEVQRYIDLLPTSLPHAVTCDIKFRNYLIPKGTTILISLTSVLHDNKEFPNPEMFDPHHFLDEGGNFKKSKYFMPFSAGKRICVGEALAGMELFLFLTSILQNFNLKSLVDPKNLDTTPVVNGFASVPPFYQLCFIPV

[18] = tested on: H4; assay: Luminescence Cell-Based Dose Response HTS to Identify Activators of 5'UTR Stem-Loop Driven Prion Protein mRNA Translation in H4 Neuroglioblastoma Cells. [Related pubchem assays: 1829 (Project Summary), 1814 (Primary HTS)]; assay type: functional; settings: Homo sapiens
[19] = biological target: T3, Heat shock factor protein 1 (Mus musculus, UniProt P38532); assay: enhancement of HSF1-driven luciferase signal – cell-based, NIH3T3, luminescence, dose retest, confirmation (AID 435004); assay type: functional;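 also: stress induced by proteasome inhibitor MG132 added 30 min after compound; luciferase reporter driven by HSF1 response element in NIH3T3 cells; actives raise luminescence as potentiators of the MG132 stress response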
T3 sequence (P38532 whole entry): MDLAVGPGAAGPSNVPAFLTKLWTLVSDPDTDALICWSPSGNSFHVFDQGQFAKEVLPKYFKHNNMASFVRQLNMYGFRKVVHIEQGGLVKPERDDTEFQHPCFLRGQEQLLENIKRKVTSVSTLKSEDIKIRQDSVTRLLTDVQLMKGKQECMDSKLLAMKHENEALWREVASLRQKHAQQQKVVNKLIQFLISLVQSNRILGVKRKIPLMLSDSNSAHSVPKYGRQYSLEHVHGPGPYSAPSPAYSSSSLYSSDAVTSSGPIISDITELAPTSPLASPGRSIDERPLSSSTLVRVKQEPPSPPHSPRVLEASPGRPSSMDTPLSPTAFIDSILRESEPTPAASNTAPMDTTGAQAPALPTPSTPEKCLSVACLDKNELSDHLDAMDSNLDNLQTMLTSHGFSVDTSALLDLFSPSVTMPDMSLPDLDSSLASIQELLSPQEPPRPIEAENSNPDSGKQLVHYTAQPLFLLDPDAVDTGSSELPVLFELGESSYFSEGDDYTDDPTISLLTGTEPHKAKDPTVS

[20] = Luminescence Cell-Based Dose Retest to Confirm Inhibitors of Cancer Stem Cells. [Related pubchem assays (depositor defined):AID2717, AID2721]; assay type: functional; settings: Homo sapiens
[21] = viability of uninfected HEp-2 cells – cell-based, HTS, cytotoxicity control for RSV inhibitor project, dose response (AID 2410); assay type: functional; settings: human respiratory syncytial virus
[22] = NIH-3T3 fibroblast cytotoxicity, dose response, cytotoxicity control, cell-based, fluorescence, Alamar Blue, secondary assay (AID 2327); assay type: functional;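 also: NIH-3T3 mouse fibroblasts cultured with fluconazole at 8 µg/mL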
[23] = fluconazole-exposed Candida albicans growth modulators – fluorescence, retest, confirmation (AID 2467); assay type: functional, cell-based

C[C@@H]1CN([C@H](C)CO)S(=O)(=O)c2ccc(-c3cccc(F)c3)cc2O[C@@H]1CN(C)S(=O)(=O)c1ccccc1
AC50 [1]: 31.6 µM (active)
AC50 [2]: 2.78 µM (active)
AC50 [3]: 3.28 µM (active)

O=C1OC(c2cccc([N+](=O)[O-])c2)C2(CCCC2)C(=O)C12CCCCC2 (configuration not stated)
IC50 [4]: > 50 µM (not active)

CNS(=O)(=O)c1ccc2c(c1)C(=O)c1cc(S(=O)(=O)NC)ccc1CC2
IC50 [5]: 865 nM (active)

O=C(Nc1cccc2ccccc12)/C(Cl)=C/c1ccccc1
IC50 [4]: 8.93 µM (not active)

COC(=O)c1sccc1N=C(S)Nc1cc(C)cc(C)c1
IC50 [6]: > 66 µM (inactive)
IC50 [7]: > 66 µM (inactive)

CCn1c(Cc2cccn2C)nnc1SCC(=O)c1ccc(C)cc1
EC50 [8]: > 112 µM (not active)
EC50 [9]: > 112 µM (not active)

O=C(Cc1ccc(N2CCNC2=O)cc1)N1CCCC(Nc2ccc(F)c(F)c2)C1 (configuration not stated)
EC50 [10]: 3.98 µM (active)
EC50 [11]: 9.17 µM (inconclusive)
EC50 [12]: 4.14 µM (active)
EC50 [13]: 14.9 µM (inconclusive)

O=C(NCCSc1c[nH]c2ccccc12)c1c(F)cccc1F
EC50 [8]: > 112 µM (not active)
EC50 [9]: > 112 µM (not active)

COC(=O)C1=C(NC(=O)c2ccc(C)c(C)c2)CCS1
EC50 [14]: > 120 µM (not active)
EC50 [15]: 13.3 µM (active)
IC50 [6]: > 66 µM (inactive)
AC50 [16]: 31.6 µM (inconclusive)
IC50 [7]: > 66 µM (inactive)
AC50 [17]: 14.1 µM (inconclusive)
EC50 [18]: 19 µM (active)

CSc1nc(Oc2ccccc2)c2sccc2n1
IC50 [4]: < 0.4 µM (not active)

COc1ccc(/C=C(\C#N)c2c[nH]c3ccccc23)cc1
EC50 [10]: 20 µM (inconclusive)
EC50 [19]: 39.2 µM (active)
EC50 [11]: 0.706 µM (inconclusive)
EC50 [12]: 1.76 µM (inconclusive)
EC50 [13]: 0.441 µM (active)
AC50 [20]: 203 nM (active)

CC(C)Cn1c(S)nnc1-c1csc(C(C)C)c1
IC50 [4]: 10.8 µM (active)

Cc1ccc2cc(CCNC(=O)c3cc4ccccc4o3)c(O)nc2c1C
IC50 [4]: > 50 µM (not active)

CCC(=O)NCCc1nc2ccccc2n1Cc1ccc(C)cc1
EC50 [8]: > 112 µM (not active)
EC50 [9]: > 112 µM (not active)

COc1ccc(C(=O)CN2CCN(S(=O)(=O)c3cccc([N+](=O)[O-])c3)CC2)cc1OC
IC50 [6]: > 66 µM (inactive)
IC50 [7]: > 66 µM (inactive)

COc1ccc(-n2c(SCC(=O)Nc3ncc(Cl)cc3Cl)nc3ccccc32)cc1
EC50 [10]: 139 µM (active)
EC50 [11]: 27.8 µM (active)
EC50 [12]: > 150 µM (inconclusive)
EC50 [13]: 137 µM (active)

CCOC(=O)c1ccc(N2C(=O)CC(Sc3ncccn3)C2=O)cc1 (configuration not stated)
IC50 [6]: > 66 µM (inactive)
IC50 [7]: > 66 µM (inactive)

Cc1cc2cc(CN=C(S)NC3CCCCC3)ccc2[nH]1
IC50 [4]: 34.6 µM (not active)

CCCc1ccc(Oc2cc(N3CCOCC3)nc(-c3ccccc3)n2)cc1
EC50 [8]: > 112 µM (not active)
EC50 [9]: > 112 µM (not active)

COc1ccc(/C=C(/NC(=O)c2ccco2)C(=O)N2CCCCCC2)cc1OC
EC50 [8]: > 112 µM (not active)
EC50 [9]: > 112 µM (not active)

COc1ccc(-c2csc(CCn3nc(C)cc3C)n2)cc1OC
EC50 [8]: > 112 µM (not active)
EC50 [9]: > 112 µM (not active)

CCC(C)C(NC(=O)c1ccc(Cl)cc1)C(=O)Nc1cccnc1 (configuration not stated)
IC50 [4]: 7.69 µM (not active)

COn1c(C)c(C(C)=O)c2c3nonc3ccc21
EC50 [8]: > 112 µM (not active)
EC50 [9]: > 112 µM (not active)

CC(=O)c1ccc(NC(=O)c2cc[nH]n2)cc1
EC50 [8]: 7.07 µM (active)
EC50 [9]: 31.4 µM (active)

Cc1ccccc1-c1nc(CS(=O)(=O)CC(=O)N2CCc3ccccc32)c(C)o1
EC50 [8]: > 112 µM (not active)
EC50 [9]: > 112 µM (not active)

O=C(O)C1C2C=CC(C2)C1C(=O)NCc1ccco1 (configuration not stated)
EC50 [8]: > 112 µM (not active)
EC50 [9]: > 112 µM (not active)

CO[C@H]1CN(C)C(=O)c2ccc(NC(=O)C3CCC3)cc2OC[C@@H](C)N(CC2CCCCC2)C[C@@H]1C
AC50 [1]: 19.9 µM (active)
AC50 [2]: 3.18 µM (active)
AC50 [3]: 10.1 µM (active)

COc1ccc(-c2cc(C(=O)N3CCCc4ccccc43)no2)cc1
IC50 [4]: 13.4 µM (not active)

O=C(CCCCCN1C(=O)c2ccccc2C1=O)Nc1ccc(F)cc1
IC50 [4]: 11.1 µM (not active)

Oc1ccccc1N1CCN(c2ncnc3sc(-c4ccccc4)cc23)CC1
CC50 [21]: 14.2 µM (active)
EC50 [8]: > 112 µM (not active)
EC50 [9]: > 112 µM (not active)
AC50 [20]: 3870 nM (active)

Cc1c(N2C(=O)S/C(=C3\C(=O)Nc4ccccc43)C2=O)c(=O)n(-c2ccccc2)n1C
IC50 [6]: > 66 µM (inactive)
IC50 [7]: > 66 µM (inactive)

Nn1c(Cc2cccc3ccccc23)nnc1SCc1ccc(Cl)c(Cl)c1
IC50 [4]: < 0.4 µM (not active)

COc1cc(NC(S)=Nc2ccc(OC(F)F)cc2)cc(OC)c1
IC50 [6]: > 66 µM (inactive)
IC50 [7]: > 66 µM (inactive)

O=C(CSc1ccc(-c2ccncc2)nn1)c1ccccc1
IC50 [6]: > 66 µM (inactive)
IC50 [7]: > 66 µM (inactive)

Cc1ncc(CN2CCC(N3CCC(C(=O)N4CCCC4)CC3)CC2)s1
EC50 [8]: > 112 µM (not active)
EC50 [9]: > 112 µM (not active)

O=C(O)CSc1c2ccccc2cc2ccccc12
IC50 [6]: > 66 µM (inactive)
IC50 [7]: > 66 µM (inactive)

C[C@H]1CN([C@@H](C)CO)C(=O)Cc2cc(N(C)C)ccc2O[C@H]1CN(C)Cc1ccc(Cl)c(Cl)c1
AC50 [3]: 40.2 µM (active)

CCN1/C(=C\C=C2\C(=O)N(c3ccccc3)C(=S)N2C)Sc2ccccc21
IC50 [4]: > 50 µM (not active)

CC1(C(=O)NCc2ccc3c(c2)OCO3)CCN1Cc1csc2ccccc12 (configuration not stated)
AC50 [3]: 43 µM (active)

CC=CCn1c(SCc2ccccc2)nc2c1c(=O)[nH]c(=O)n2C
IC50 [6]: > 66 µM (inactive)
IC50 [7]: > 66 µM (inactive)

CCc1ccc(NC(=O)c2noc(C(C)C)c2[N+](=O)[O-])cc1
IC50 [4]: 6.83 µM (not active)

Brc1ccc(-c2nnc3sc(CN4CCN(c5ccccc5)CC4)cn23)cc1
EC50 [10]: > 150 µM (not active)
EC50 [11]: > 150 µM (not active)
EC50 [22]: > 150 µM (inactive)
EC50 [12]: > 150 µM (not active)
EC50 [13]: > 150 µM (not active)
EC50 [23]: 2.14 µM (active)

C[C@H]1CN([C@@H](C)CO)S(=O)(=O)c2ccc(Br)cc2O[C@H]1CN(C)S(=O)(=O)c1ccc(F)cc1
AC50 [1]: 29.7 µM (active)
AC50 [2]: 3.04 µM (active)
AC50 [3]: 2.84 µM (active)

NC(=O)c1ccsc1NC(=O)CSc1nc2ccccc2c(=O)n1CCCO
IC50 [6]: > 66 µM (inactive)
IC50 [7]: > 66 µM (inactive)

N#Cc1c(O)nc(S)nc1-c1cccc(Cl)c1
IC50 [6]: > 66 µM (inactive)
IC50 [7]: > 66 µM (inactive)
